Reference: paper PMC8962522, “Direct interaction of TrkA/CD44v3 is essential for NGF-promoted aggressiveness of breast cancer cells” (Journal of Experimental & Clinical Cancer Research : CR, 2022)

Test system: CD44v3 in MDA-MB-231 cells
Experiment: Flow cytometry, plasma membrane CD44v3
Assay type: cell-based
Settings: MDA-MB-231, flow cytometry
Excerpt: The CD44v3- and CD44v6-containing isoforms expressing respectively exon 8 and 11(Fig. 1A) can interact with growth factor receptors. Using COS-7 cells with low CD44 and TrkA expression (Supplementary Fig. 1A-D), we differentially expressed TrkA and CD44s or a CD44 variant, either CD44v3 or CD44v6 (Fig. 1B, supplementary Fig. 2). […] Additionally, we evaluated the expression of TrkA and CD44v3 at the membrane level or in cells by immunofluorescence in MDA-MB-231 cells.
Supplementary file 13046_2022_2314_MOESM3_ESM.pdf: Additional file 3: Supplementary Figure 1. Validation of the ectopic expression of CD44 and/or TrkA in COS-7 cells. The expression of all CD44 isoforms (A), CD44 variant 3 (B), CD44 variant 6 (C) and TrkA ([…]; D) was evaluated by RT–qPCR (normalized using PUM-1). No expression of CD44, CD44 variants [3 or 6] or TrkA was detected in COS-7 cells (A-D) compared with that in cells transfected with the expression plasmid carrying each protein. […] Quantification of the PLA results was performed using ImageJ software (30 randomly chosen fields per condition of three different experiments). […] CD44v3 and CD44v6 levels at the plasma membrane were assessed by flow cytometry (A-D). The plasma membrane and total TrkA and CD44v3 levels were also quantified by confocal microscopy (E-H). […] The CD44v3/NGF interaction was evaluated using microscale thermophoresis (MST). […]

NGF: recombinant human β-NGF (Alomone Labs, Israel)
increase of plasma membrane CD44v3 (CD44v3-APC, histogram with No stim., NGF (5 min), NGF (30 min)): 33% | plasma membrane level of CD44v3 (in words) (NGF stimulation): increased the plasma membrane level of CD44v3
